Data from US20210393636A1, “TREATMENT OF CNS AND DEVELOPMENTAL DISORDERS USING HIGH DOSE 5-FORMYL-(6S)-TETRAHYDROFOLATE” (priority 2019, published 2021).
Values belong to the compound of their own block, whether it stands above or below them.

Tests used:
[1] = Tissue distribution of folates 24 h after oral administration of folate forms to rat pups, with and without FR Ab (Example 3); type: in vivo; conditions: for Folate (mean), Cerebellum / Folate (mean), Cerebrum / Folate (mean), Kidney / Folate (mean), Liver: PND 21 rat pups, 4 mg/kg oral, 24 h
Protocol: To determine tissue distribution of orally administered folate forms in young rat pups and study the effect of folate receptor antibodies on this distribution. PND 21 rat pups weighing about 50 g were administered folate forms orally at a dose of 4 mg/kg. Animals were euthanized after 24 h and tissues collected for analyzing total methylfolate in each tissue to provide a measure of normal distribution.

[2] = Tissue distribution of folates 24 h after oral administration of folate forms (Example 2); type: in vivo, rats; conditions: for Total 5-MTHF + PGA in Brain: derived from cortex and cerebellum
Protocol: (§1) This study evaluated the difference in folate absorption in non-pregnant rats, pregnant rats, pregnant rats injected with a control antibody, and pregnant rats injected with antibody to the folate receptor alpha. Eight (8) rats were assigned to each group for a total of thirty-two (32) rats. Two rats within each group were administered a single oral dose of PGA, 5-methyl-(6S)-THF, folinic acid or 5-formyl-(6S)-THF as a liquid solution and sacrificed at 24-hours to evaluate folate absorption patterns. The total amount of each form of folate administered to each rat was 4 mg/kg.
Additional analyses were performed in various tissues of the pregnant and non-pregnant rats. For tissues other than serum, each tissue was collected, weighed and stored at −20 C. For the folate assay each tissue was suspended in 3 volumes of phosphate buffer containing 2% ascorbic acid pH 7.4 and homogenized using a polytron probe. An aliquot of this homogenate was diluted 10 fold in PO4 buffer PH 5.5 containing 0.2% ascorbic acid, in a glass tube, sealed and placed in a boiling water bath for 10 min. The tube was cooled to room temperature, precipitate removed by centrifugation and the clear supernatant assayed for folate. Brain concentrations were derived from cortex and cerebellum.

[3] = Total folates in serum 24 h after oral administration of folate forms (Example 2); type: in vivo, rats; parameters: Total Folates in Serum (total 5-MTHF D- and L- plus folic acid): unit not given here; conditions: for Total Folates in Serum (total 5-MTHF D- and L- plus folic acid): 4 mg/kg oral, 24 h
Protocol: as §1
Serum was withdrawn immediately before the rat was sacrificed. For extraction of folate from serum, an aliquot of the serum was diluted in 3 volumes of phosphate buffer pH 5.5, placed in a boiling water bath for 10 min, cooled, the protein precipitate separated by centrifugation and the clear supernatant was assayed for folate concentration.

[4] = Folate absorption in serum after single high-dose oral administration of different folates (Example 1)
Protocol: For this study, 4 mg/kg folate was administered as a single dose to 250-300 g male Wistar rats. […] For each form of folate 4 time points of 30 min, 1 h, 2 h and 4 h were evaluated. For each time point 2 rats were used. The folate form dissolved in 0.5 ml buffered saline was administered orally using a blunt needle attached to a 1 ml syringe. The rats were euthanized by CO2 inhalation.
Blood was drawn cardiac puncture, allowed to clot for 30 min, serum separated, diluted in equal volume of 4% ascorbate pH 7.2 and kept frozen at −20 C. Folate forms in the serum was determined by HPLC and the peaks were quantified by comparing to known standards as described below.
Folate standards (5-MTHF, FA, THF and Formyl-THF) and 13C-labeled stable isotope internal standards (13C5-5-MTHF, 13C5-FA and 13C-Formyl-THF) were obtained from Schircks Laboratories (Switzerland). Formic acid, ascorbic acid and dithiothreitol (DTT) were obtained from Fluka and Optima LC-MS grade methanol from Fisher Scientific. Stock standards for each folate metabolite and internal standards were prepared as 1 mmol/L solutions in water containing 2 mg/mL ascorbic acid and stored at −80° C. Microtiter plates used for were purchased from NUNC.
Liquid chromatography electrospray ionization mass spectrometry (LC-ESI-MS/MS) analysis of plasma 5-MTHF, FA, THF, Formyl-THF was performed on a Sciex 5500QTRAP mass spectrometer (Foster City, Calif., USA) coupled with a Shimadzu ultra-high pressure Nexera chromatograph system (Kyoto, Japan). The MS/MS experiments were performed under positive electrospray ionization (+ESI) with multiple-reaction monitoring (MRM) using a Turbolon Spray electrospray source operating at a voltage of 5.5 kV and desolvation temperature of 500° C. The calibration curve was prepared in water containing 2 mg/mL ascorbic acid over a range of 12.5-400 nmol/L for each folate analyte.
Sample preparation involved combining 50 µl of blank, standard, control or sample with 10μ1 62.5 mM dithiothreitol, 20 mg/ml ascorbic acid and 2.5 μM 13C5-5-MTHF, 13C5-FA, 13C-Formyl-THF in 1.5 mL Eppendorf tubes, mixed by vortex and incubated for 10 minutes at room temperature in the dark. Next, samples were deproteinized with 5 volumes of methanol containing 2 mg/ml of ascorbic acid and vortexed and centrifuged at 14800 rpm for 10 minutes. Supernatant was loaded in a 96-well microtiter plate for analysis. The samples were analyzed following injection of 10 μL of extract on a Synergi Hydro 4μ 150×3 mm with a 4×2 mm SecurityGuard column (Phenomenex, Calif., USA) maintained at 40° C. (Phenomenex) and eluted in a gradient with buffer A (100% water with 0.1% formic acid) and buffer B (100% Methanol with 0.1% formic acid). The flow rate was 0.5 mL/min, with a gradient over a total run time of 6 min: 0.0-2.0 min, 0-100% B; 2.5 min, 100% B; 2.6-6.0 min, 0% B.
Total analytical analysis, including column re-equilibration, was 6 minutes. Eluent flow from the column was diverted to waste at the beginning and end of each run and was only directed to the source for the period from 1.5-3.5 minutes. The LC-MS/MS data was acquired and processed using Analyst 1.5.2 software (Sciex).
Values reported include both D- and L-forms.

[5] = non-pregnant rats, without antibody, 4 mg/kg oral, 24 h
[6] = pregnant rats, + Control IgG, 4 mg/kg oral, 24 h
[7] = pregnant rats, + FRAb, 4 mg/kg oral, 24 h
[8] = pregnant rats, w/o IgG, 4 mg/kg oral, 24 h
[9] = serum, 4 mg/kg single oral dose, 0.5 hr
[10] = serum, 4 mg/kg single oral dose, 1 hr
[11] = serum, 4 mg/kg single oral dose, 2 hr
[12] = serum, 4 mg/kg single oral dose, 4 hr
[13] = male, Wistar, rat, in vivo, po, 4 mg/kg
[14] = male, Wistar, rat, in vivo, po, 4 mg/kg, 0.5 h
[15] = male, Wistar, rat, in vivo, po, 4 mg/kg, 1 h
[16] = male, Wistar, rat, in vivo, po, 4 mg/kg, 2 h
[17] = male, Wistar, rat, in vivo, po, 4 mg/kg, 4 h

- Folate (mean), Cerebellum ([1]; + FRAb (100 ug IP 24 h prior)): 69.5 ng/mg
- Folate (mean), Cerebrum ([1]; + FRAb (100 ug IP 24 h prior)): 13.2 ng/mg
- Folate (mean), Kidney ([1]; + FRAb (100 ug IP 24 h prior)): 48.7 ng/mg
- Folate (mean), Liver ([1]; + FRAb (100 ug IP 24 h prior)): 133.44 ng/mg
- Folate (mean), Cerebellum ([1]; no FRAb): 93.3 ng/mg
- Folate (mean), Cerebrum ([1]; no FRAb): 15.3 ng/mg
- Folate (mean), Kidney ([1]; no FRAb): 52.1 ng/mg
- Folate (mean), Liver ([1]; no FRAb): 80.0 ng/mg
- change of folates in the brain on antibody administration ([1]; antibody-treated pups vs pups without antibody): The opposite is observed
- folate concentrations in cerebellum and cerebrum compared to 5-methyl-6S-THF ([1]; rat pups with and without the antibody): much higher folate concentrations
- concentrations of folates in ovary, brain and cerebellum compared to 5-methyl-6S-THF ([2]; non-pregnant rats without folate receptor antibody): much better concentrations of folates
- Total 5-MTHF + PGA in Cerebellum [2, 5]: 8.2
- Total 5-MTHF + PGA in Cortex [2, 5]: 1.5
- Total 5-MTHF + PGA in Kidney [2, 5]: 20.4
- Total 5-MTHF + PGA in Liver [2, 5]: 93.0
- Total 5-MTHF + PGA in Ovary [2, 5]: 9.8
- Total 5-MTHF + PGA in Brain [2, 5]: 4.8
- folate concentrations in placenta and embryo compared to 5-methyl-6S-THF or folinic acid ([2]; pregnant rats without folate receptor antibody): much better folate concentrations
- Total 5-MTHF + PGA in Embryo [2, 6]: 2.8 ng/mg
- Total 5-MTHF + PGA in Kidney [2, 6]: 19.8 ng/mg
- Total 5-MTHF + PGA in Liver [2, 6]: 38.2 ng/mg
- Total 5-MTHF + PGA in Ovary [2, 6]: 7.1 ng/mg
- Total 5-MTHF + PGA in Placenta [2, 6]: 3.3 ng/mg
- Total 5-MTHF + PGA in Brain [2, 6]: 4.8 ng/mg
- Total 5-MTHF + PGA in Embryo [2, 7]: 2.3 ng/mg
- Total 5-MTHF + PGA in Kidney [2, 7]: 14.3 ng/mg
- Total 5-MTHF + PGA in Liver [2, 7]: 39.1 ng/mg
- Total 5-MTHF + PGA in Ovary [2, 7]: 3.2 ng/mg
- Total 5-MTHF + PGA in Placenta [2, 7]: 3.0 ng/mg
- Total 5-MTHF + PGA in Brain [2, 7]: 3.5 ng/mg
- Total 5-MTHF + PGA in Embryo [2, 8]: 7.2 ng/mg
- Total 5-MTHF + PGA in Kidney [2, 8]: 20.2 ng/mg
- Total 5-MTHF + PGA in Liver [2, 8]: 44.8 ng/mg
- Total 5-MTHF + PGA in Ovary [2, 8]: 9.3 ng/mg
- Total 5-MTHF + PGA in Placenta [2, 8]: 9.0 ng/mg
- Total 5-MTHF + PGA in Brain [2, 8]: 2.0 ng/mg
- Total Folates in Serum (total 5-MTHF D- and L- plus folic acid) ([3]; Non-pregnant rats): 27.5
- concentrations of total folates in serum compared to other folate forms ([3]; especially pregnant rats injected with folate receptor antibody): superior concentrations of total folates
- Total Folates in Serum (total 5-MTHF D- and L- plus folic acid) ([3]; pregnant rats, Control Ab + Form): 247.1
- Total Folates in Serum (total 5-MTHF D- and L- plus folic acid) ([3]; pregnant rats, FRAb + Form): 228.8
- Total Folates in Serum (total 5-MTHF D- and L- plus folic acid) ([3]; pregnant rats, Form Only): 88.9
- serum THF and 5-MTHF compared to folinic acid ([4]; especially at one hour): Much better
- THF generation and total uptake compared to 5-methyl-(6S)-THF administration ([4]; serum, 4 mg/kg oral): much greater
- 5-FoTHF [4, 9]: 68.2 ng/mL
- THF [4, 9]: 22.9 ng/mL
- Total Uptake [4, 9]: 252.6 ng/mL
- 5-MTHF ([4]; serum, 4 mg/kg single oral dose, 0.5 hr, D- and L-forms): 161.6 ng/mL
- 5-FoTHF [4, 10]: 97.3 ng/mL
- THF [4, 10]: 35.8 ng/mL
- Total Uptake [4, 10]: 375.0 ng/mL
- 5-MTHF ([4]; serum, 4 mg/kg single oral dose, 1 hr, D- and L-forms): 241.9 ng/mL
- 5-FoTHF [4, 11]: 19.7 ng/mL
- THF [4, 11]: 9.0 ng/mL
- Total Uptake [4, 11]: 162.9 ng/mL
- 5-MTHF ([4]; serum, 4 mg/kg single oral dose, 2 hr, D- and L-forms): 144.1 ng/mL
- 5-FoTHF [4, 12]: 7.0 ng/mL
- THF [4, 12]: 39.1 ng/mL
- Total Uptake [4, 12]: 216.1 ng/mL
- 5-MTHF ([4]; serum, 4 mg/kg single oral dose, 4 hr, D- and L-forms): 173.5 ng/mL
Structure (SMILES): Nc1nc2c(c(=O)[nH]1)N(C=O)[C@@H](CNc1ccc(C(=O)N[C@@H](CCC(=O)O)C(=O)O)cc1)CN2 [5-formyl-(6S)-tetrahydrofolate]

- concentration at 0.5 h [4, 13]: 42.4 ng/mL
- concentration at 1 h [4, 13]: 236 ng/mL
- concentration at 2 h [4, 13]: 134 ng/mL
- concentration at 4 h [4, 13]: 121 ng/mL
- 5-MTHF [4, 14]: 72.8 ng/mL
- THF [4, 14]: 10.7 ng/mL
- Total Uptake [4, 14]: 126.0 ng/mL
- 5-MTHF [4, 15]: 112.9 ng/mL
- THF [4, 15]: 5.9 ng/mL
- Total Uptake [4, 15]: 354.3 ng/mL
- 5-MTHF [4, 16]: 101.4 ng/mL
- THF [4, 16]: 7.9 ng/mL
- Total Uptake [4, 16]: 243.3 ng/mL
- 5-MTHF [4, 17]: 109.7 ng/mL
- THF [4, 17]: 22.4 ng/mL
- Total Uptake [4, 17]: 252.7 ng/mL
Structure (SMILES): Nc1nc2ncc(CNc3ccc(C(=O)N[C@@H](CCC(=O)O)C(=O)O)cc3)nc2c(=O)[nH]1 [Folic Acid, pteroylglutamic acid]
